Publication PMC7944397 (ACS infectious diseases, 2021)
Like-named read-outs stand apart in the source and are kept apart here.

Key:
cathepsin L = cathepsin L (Homo sapiens, UniProt P07711); experiment: FRET enzymatic assay; assay type: biochemical
MERS-CoV M^pro [1] = target: T1, MERS-CoV M^pro (Human betacoronavirus 2c EMC/2012, UniProt K0BWD0); assay type: biochemical; details: read-out: KI
MERS-CoV M^pro [2] = target: T1, MERS-CoV M^pro; experiment: biochemical

Sequence of cathepsin L (P07711 114-288): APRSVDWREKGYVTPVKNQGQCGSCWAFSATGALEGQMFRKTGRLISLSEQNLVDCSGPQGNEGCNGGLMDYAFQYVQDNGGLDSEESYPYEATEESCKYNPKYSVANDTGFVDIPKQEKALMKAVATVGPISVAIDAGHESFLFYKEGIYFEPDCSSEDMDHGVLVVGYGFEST
Sequence of cathepsin L (P07711 292-333): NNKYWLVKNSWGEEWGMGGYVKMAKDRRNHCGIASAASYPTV
T1 sequence (K0BWD0 3248-3553 limits assumed): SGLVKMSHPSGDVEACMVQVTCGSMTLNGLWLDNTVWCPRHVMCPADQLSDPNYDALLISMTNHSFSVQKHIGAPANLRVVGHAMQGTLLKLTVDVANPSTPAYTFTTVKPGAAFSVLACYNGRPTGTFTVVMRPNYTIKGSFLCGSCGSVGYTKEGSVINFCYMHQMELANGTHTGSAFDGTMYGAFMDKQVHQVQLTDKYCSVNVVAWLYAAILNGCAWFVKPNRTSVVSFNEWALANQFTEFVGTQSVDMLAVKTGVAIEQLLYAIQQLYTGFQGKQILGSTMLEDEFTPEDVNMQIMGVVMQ

SMILES | IC50 (cathepsin L) [nM] | KI (inactivation) (MERS-CoV M^pro [1]) [nM] | IC50 (cathepsin L; individual value only in figure) | Ki (MERS-CoV M^pro [2]) [nM]
CC(C)C[C@H](NC(=O)[C@@H]1O[C@H]1C(=O)O)C(=O)NCCCCN=C(N)N [E-64, reference compound] | 5.45 | – | – | –
CC(C)(C)NC(=O)N[C@H](C(=O)N1C[C@H]2[C@@H]([C@H]1C(=O)NC(CC1CCC1)C(=O)C(N)=O)C2(C)C)C(C)(C)C (some centres unmarked) [boceprevir] | 153 | 1650 ± 120 | – | –
CCCC(NC(=O)[C@H](CC(C)C)NC(=O)OCc1ccccc1)C(=O)C(=O)NCc1ccccn1 (some centres unmarked) [calpain inhibitor XII] | – | – | calpain inhibitors II and XII and GC-376 had potent inhibition against cathepsin L | 1320 ± 70
